{"source": "ChEMBL document CHEMBL4346657", "about": "“Anticancer activity, dual prooxidant/antioxidant effect and apoptosis induction profile of new bichalcophene-5-carboxamidines” (Eur J Med Chem, 2019)", "key": {"[1]": {"test_system": "SK-MEL-28", "assay": "Antiproliferative activity against human SK-MEL-28 cells assessed as growth inhibition after 48 hrs by sulforhodamine B assay", "format": "functional", "details": "SK-MEL-28, 48 h"}, "[2]": {"test_system": "MDA-MB-231", "assay": "Antiproliferative activity against human MDA-MB-231/ATCC cells assessed as growth inhibition after 48 hrs by sulforhodamine B assay", "format": "functional", "details": "MDA-MB-231, 48 h"}, "[3]": {"test_system": "SF-295", "assay": "Antiproliferative activity against human SF295 cells assessed as growth inhibition after 48 hrs by sulforhodamine B assay", "format": "functional", "details": "SF-295, 48 h"}, "[4]": {"test_system": "COLO 205", "assay": "Antiproliferative activity against human COLO205 cells assessed as growth inhibition after 48 hrs by sulforhodamine B assay", "format": "functional", "details": "COLO 205, 48 h"}, "[5]": {"test_system": "HL-60(TB)", "assay": "Antiproliferative activity against human HL-60(TB) cells assessed as growth inhibition after 48 hrs by sulforhodamine B assay", "format": "functional", "details": "HL-60, 48 h"}, "[6]": {"test_system": "NCI-H460", "assay": "Antiproliferative activity against human NCI-H460 cells assessed as growth inhibition after 48 hrs by sulforhodamine B assay", "format": "functional", "details": "NCI-H460, 48 h"}, "[7]": {"test_system": "NCI-H226", "assay": "Antiproliferative activity against human NCI-H226 cells assessed as growth inhibition after 48 hrs by sulforhodamine B assay", "format": "functional", "details": "NCI-H226, 48 h"}, "[8]": {"assay": "Antioxidant activity assessed as ABTS radical scavenging activity by spectrophotometric method relative to ascorbic acid", "format": "functional"}, "[9]": {"assay": "Antioxidant activity assessed as ABTS radical scavenging activity by spectrophotometric analysis relative to control", "format": "functional", "set-up": "concentration or dose not given beside the values", "details": "dose or concentration not given here"}, "[10]": {"assay": "Haemolytic activity in human erythrocytes assessed as induction of hemolysis at 10 mM after 30 mins relative to H202", "format": "cell-based, Erythrocyte", "details": "read-out: Activity"}, "[11]": {"test_system": "786-0", "assay": "Antiproliferative activity against human 786-0 cells assessed as growth inhibition after 48 hrs by sulforhodamine B assay", "format": "functional", "details": "786-0, 48 h"}, "[12]": {"test_system": "SK-MEL-5", "assay": "Antiproliferative activity against human SK-MEL-5 cells assessed as growth inhibition after 48 hrs by sulforhodamine B assay", "format": "functional", "details": "SK-MEL-5, 48 h"}, "[13]": {"test_system": "M14", "assay": "Antiproliferative activity against human M14 cells assessed as growth inhibition after 48 hrs by sulforhodamine B assay", "format": "functional", "details": "M14, 48 h"}, "[14]": {"test_system": "SW-620", "assay": "Antiproliferative activity against human SW620 cells assessed as growth inhibition after 48 hrs by sulforhodamine B assay", "format": "functional", "details": "SW-620, 48 h"}, "[15]": {"test_system": "UACC-62", "assay": "Antiproliferative activity against human UACC62 cells assessed as growth inhibition after 48 hrs by sulforhodamine B assay", "format": "functional", "details": "UACC-62, 48 h"}, "[16]": {"test_system": "NCI-H322M", "assay": "Antiproliferative activity against human NCI-H322M cells assessed as growth inhibition after 48 hrs by sulforhodamine B assay", "format": "functional"}, "[17]": {"test_system": "MDA-MB-435", "assay": "Antiproliferative activity against human MDA-MB-435 cells assessed as growth inhibition after 48 hrs by sulforhodamine B assay", "format": "functional", "details": "MDA-MB-435, 48 h"}, "[18]": {"test_system": "IGROV-1", "assay": "Antiproliferative activity against human IGROV1 cells assessed as growth inhibition after 48 hrs by sulforhodamine B assay", "format": "functional", "details": "IGROV-1, 48 h"}, "[19]": {"test_system": "DU-145", "assay": "Antiproliferative activity against human DU145 cells assessed as growth inhibition after 48 hrs by sulforhodamine B assay", "format": "functional", "details": "DU-145, 48 h"}, "[20]": {"test_system": "HCT-116", "assay": "Induction of apoptosis in human HCT116 cells assessed as increase in p53 mRNA expression at 100 nM after 6 hrs hrs by SYBR green dye-based qRT-PCR analysis relative to control", "format": "functional"}, "[21]": {"test_system": "NCI-H522", "assay": "Antiproliferative activity against human NCI-H522 cells assessed as growth inhibition after 48 hrs by sulforhodamine B assay", "format": "functional", "details": "NCI-H522, 48 h"}, "[22]": {"test_system": "HCT-116", "assay": "[…] in CDK1 mRNA expression in human HCT116 cells at 100 nM after 6 hrs hrs by SYBR green dye-based qRT-PCR analysis relative to control", "format": "functional"}, "[23]": {"test_system": "Malme-3M", "assay": "Antiproliferative activity against human MALME-3M cells assessed as growth inhibition after 48 hrs by sulforhodamine B assay", "format": "functional"}, "[24]": {"test_system": "SNB-19", "assay": "Antiproliferative activity against human SNB19 cells assessed as growth inhibition after 48 hrs by sulforhodamine B assay", "format": "functional", "details": "SNB-19, 48 h"}, "[25]": {"test_system": "Panel NCI-60 (60 carcinoma cell lines)", "assay": "Antiproliferative activity against human NCI60 cells assessed as growth inhibition at 10 uM after 48 hrs by sulforhodamine B assay", "format": "functional", "details": "read-out: GI"}, "[26]": {"assay": "Pro-oxidant activity assessed as increase in bleomycin-Fe2+ induced calf thymus DNA damage at 2 mM after 1 hr by thiobarbituric acid based absorbance analysis"}, "[27]": {"test_system": "HCT-116", "assay": "Induction of apoptosis in human HCT116 cells assessed as increase in caspase 9 mRNA expression at 100 nM after 6 hrs hrs by SYBR green dye-based qRT-PCR analysis relative to control", "format": "functional"}, "[28]": {"test_system": "SK-OV-3", "assay": "Antiproliferative activity against human SKOV3 cells assessed as growth inhibition after 48 hrs by sulforhodamine B assay", "format": "functional", "details": "SK-OV-3, 48 h"}, "[29]": {"assay": "Selectivity index, ratio of IC50 for human WI38 cells to GI50 for human NCI60 cells"}, "[30]": {"test_system": "MCF7", "assay": "Antiproliferative activity against human MCF7 cells assessed as growth inhibition after 48 hrs by sulforhodamine B assay", "format": "functional", "details": "MCF7, 48 h"}, "[31]": {"test_system": "EKVX", "assay": "Antiproliferative activity against human EKVX cells assessed as growth inhibition after 48 hrs by sulforhodamine B assay", "format": "functional"}, "[32]": {"test_system": "OVCAR-5", "assay": "Antiproliferative activity against human OVCAR5 cells assessed as growth inhibition after 48 hrs by sulforhodamine B assay", "format": "functional", "details": "OVCAR-5, 48 h"}, "[33]": {"assay": "Antioxidant activity assessed as hydroxyl radical scavenging activity after 1 hr by salicylic acid-based Fenton reaction assay", "format": "functional"}, "[34]": {"test_system": "RPMI-8226", "assay": "Antiproliferative activity against human RPMI8226 cells assessed as growth inhibition after 48 hrs by sulforhodamine B assay", "format": "functional", "details": "RPMI-8226, 48 h"}, "[35]": {"test_system": "SF-268", "assay": "Antiproliferative activity against human SF268 cells assessed as growth inhibition after 48 hrs by sulforhodamine B assay", "format": "functional", "details": "SF-268, 48 h"}, "[36]": {"test_system": "HCT-116", "assay": "Antiproliferative activity against human HCT116 cells assessed as growth inhibition after 48 hrs by sulforhodamine B assay", "format": "functional", "details": "HCT-116, 48 h"}, "[37]": {"assay": "Haemolytic activity in human erythrocytes assessed as induction of hemolysis at 5 mM after 30 mins relative to H202", "format": "cell-based, Erythrocyte", "details": "read-out: Activity"}, "[38]": {"test_system": "CCRF-CEM", "assay": "Antiproliferative activity against human CCRF-CEM cells assessed as growth inhibition after 48 hrs by sulforhodamine B assay", "format": "functional"}, "[39]": {"test_system": "SK-MEL-2", "assay": "Antiproliferative activity against human SK-MEL-2 cells assessed as growth inhibition after 48 hrs by sulforhodamine B assay", "format": "functional", "details": "SK-MEL-2, 48 h"}, "[40]": {"test_system": "ACHN", "assay": "Antiproliferative activity against human ACHN cells assessed as growth inhibition after 48 hrs by sulforhodamine B assay", "format": "functional"}, "[41]": {"test_system": "Panel NCI-60 (60 carcinoma cell lines)", "assay": "Antiproliferative activity against human NCI60 cells assessed as growth inhibition after 48 hrs by sulforhodamine B assay", "format": "functional"}, "[42]": {"test_system": "SN12C", "assay": "Antiproliferative activity against human SN12C cells assessed as growth inhibition after 48 hrs by sulforhodamine B assay", "format": "functional"}}, "note": "The source made the active and inactive calls. No cut-off for these calls is given here.", "data": [{"smiles": "COc1ccc(-c2ccc(-c3ccc(C(=N)N)o3)o2)cc1", "values": [{"measurement": "GI50", "setting": "[1]", "value": 1.67, "unit": "µM"}, {"measurement": "GI50", "setting": "[2]", "value": 1.9, "unit": "µM"}, {"measurement": "GI50", "setting": "[3]", "value": 1.68, "unit": "µM"}, {"measurement": "GI50", "setting": "[4]", "value": 1.25, "unit": "µM"}, {"measurement": "GI50", "setting": "[5]", "value": 1.23, "unit": "µM"}, {"measurement": "GI50", "setting": "[6]", "value": 1.17, "unit": "µM"}, {"measurement": "GI50", "setting": "[7]", "value": 22, "unit": "µM"}, {"measurement": "fold change (FC)", "setting": "[8]", "value": 0.7}, {"measurement": "inhibition", "setting": "[9]", "value": 69.2, "unit": "%"}, {"measurement": "hemolysis at 0.5 h, 10000 µM", "setting": "[10]", "value": 71.7, "unit": "%"}, {"measurement": "GI50", "setting": "[11]", "value": 2.22, "unit": "µM"}, {"measurement": "GI50", "setting": "[12]", "value": 2.8, "unit": "µM"}, {"measurement": "GI50", "setting": "[13]", "value": 1.47, "unit": "µM"}, {"measurement": "GI50", "setting": "[14]", "value": 0.53, "unit": "µM"}, {"measurement": "GI50", "setting": "[15]", "value": 1.29, "unit": "µM"}, {"measurement": "GI50", "setting": "[16]", "value": 2.26, "unit": "µM"}, {"measurement": "GI50", "setting": "[17]", "value": 0.29, "unit": "µM"}, {"measurement": "GI50", "setting": "[18]", "value": 1.73, "unit": "µM"}, {"measurement": "GI50", "setting": "[19]", "value": 1.91, "unit": "µM"}, {"measurement": "fold change (FC)", "setting": "[20]", "value": 0.94}, {"measurement": "GI50", "setting": "[21]", "value": 1.09, "unit": "µM"}, {"measurement": "fold change (FC)", "setting": "[22]", "value": 1.02}, {"measurement": "GI50", "setting": "[23]", "value": 3.97, "unit": "µM"}, {"measurement": "GI50", "setting": "[24]", "value": 1.99, "unit": "µM"}, {"measurement": "inhibition of growth at 10 µM", "setting": "[25]", "value": 86.4, "unit": "%"}, {"measurement": "Activity", "setting": "[26]", "value": "Active"}, {"measurement": "fold change (FC)", "setting": "[27]", "value": 2.31}, {"measurement": "GI50", "setting": "[28]", "value": 5.63, "unit": "µM"}, {"measurement": "Selectivity Index", "setting": "[29]", "value": 41.8}, {"measurement": "GI50", "setting": "[30]", "value": 0.33, "unit": "µM"}, {"measurement": "GI50", "setting": "[31]", "value": 2.79, "unit": "µM"}, {"measurement": "GI50", "setting": "[32]", "value": 2.43, "unit": "µM"}, {"measurement": "Activity", "setting": "[33]", "value": "Active"}, {"measurement": "GI50", "setting": "[34]", "value": 2.68, "unit": "µM"}, {"measurement": "GI50", "setting": "[35]", "value": 2.04, "unit": "µM"}, {"measurement": "GI50", "setting": "[36]", "value": 1.07, "unit": "µM"}, {"measurement": "hemolysis at 0.5 h, 5000 µM", "setting": "[37]", "value": 36.3, "unit": "%"}, {"measurement": "GI50", "setting": "[38]", "value": 1.84, "unit": "µM"}, {"measurement": "GI50", "setting": "[39]", "value": 5.71, "unit": "µM"}, {"measurement": "GI50", "setting": "[40]", "value": 1.8, "unit": "µM"}, {"measurement": "GI50", "setting": "[41]", "value": 1.74, "unit": "µM"}, {"measurement": "LC50", "setting": "[41]", "value": 20.4, "unit": "µM"}, {"measurement": "TGI", "setting": "[41]", "value": 5.89, "unit": "µM"}, {"measurement": "GI50", "setting": "[42]", "value": 2.02, "unit": "µM"}]}]}
